The results in this text go back to US20110178299A1, “OPTICALLY ACTIVE DIFLUOROMETHANESULFONANILIDE DERIVATIVE AND HERBICIDE” (Kumiai Chemical Industry Co., Ltd., priority 2008, published 2011).

Holding throughout (assay): Paddy pot test of herbicidal effect, water surface application of wettable powder
What all share (assay type): in vivo
Common to all, as to details: applied onto water surface 3 days after sowing, examined after 30 days

The subject of test [1] is Monochoria vaginalis Presl var. plan-taginea (Roxb.) Solms-Lau. How it is done:
(§1) A paddy field soil was filled in a plastic pot having an area of 1/5000 are. Beginning of irrigation, fertilizer application and puddling were conducted. Then, seeds of Echinochloa oryzicola Vasing, Monochoria vaginalis Presl var. plan-taginea (Roxb.) Solms-Lau. and Scirpus juncoides Roxb. were sowed at a depth of 0.5 cm, and submerging was conducted so as to give a water depth of 4 cm. 3 days after the sowing, the wettable powder prepared as in the formulation 1 was diluted with water and dropwise added onto the water surface so that the active ingredient amount (g/10 are) added became the level shown in Table 2. Then, breeding was made at room temperature and, after 30 days, herbicidal effect was examined according to the yardstick shown in Table 1.

The test system of the next test is Scirpus juncoides Roxb. On the procedure: as §1
The subject of test [2] is Echinochloa oryzicola Vasing. On the procedure:
as §1

Turning to `COCc1cccc(C(O)c2nc(OC)cc(OC)n2)c1NS(=O)(=O)C(F)F` (racemic) [compound 2, (RS)-2′-(4,6-dimethoxypyrimidin-2-yl)hydroxymethyl-6′-methoxymethyl-1,1-difluoromethanesulfonanilide, reference compound], the “Herbicidal effect (degree of growth control) index, Monochoria vaginalis” value in test [1] (dose 0.04 g ai/10 a) is listed as 0 (Herbicidal effect of less than 10%); in test [1] (dose 0.08 g ai/10 a) it was 0 (Herbicidal effect of less than 10%); in test [1] (dose 0.16 g ai/10 a) it was 9 (Herbicidal effect of 90 inclusive to 100% exclusive); in test [1] (dose 0.32 g ai/10 a), 10 (Herbicidal effect of 100% control). The “Herbicidal effect (degree of growth control) index, Scirpus juncoides” value with Scirpus juncoides Roxb. (dose 0.04 g ai/10 a) is 2 (Herbicidal effect of 20% inclusive to 30% exclusive); in the test with Scirpus juncoides Roxb. (dose 0.08 g ai/10 a), 8 (Herbicidal effect of 80% inclusive to 90% exclusive); in the test on Scirpus juncoides Roxb. (dose 0.16 g ai/10 a) it was 9 (Herbicidal effect of 90 inclusive to 100% exclusive); with Scirpus juncoides Roxb. (dose 0.32 g ai/10 a), 10 (Herbicidal effect of 100% control). Further, the “Herbicidal effect (degree of growth control) index, Echinochloa oryzicola” value in test [2] (dose 0.04 g ai/10 a) was 1 (Herbicidal effect of 10% inclusive to 20% exclusive); in test [2] (dose 0.08 g ai/10 a), 3 (Herbicidal effect of 30% inclusive to 40% exclusive); in test [2] (dose 0.16 g ai/10 a), 5 (Herbicidal effect of 50% inclusive to 60% exclusive); in test [2] (dose 0.32 g ai/10 a), 7 (Herbicidal effect of 70% inclusive to 80% exclusive).

In the case of `COCc1cccc([C@@H](O)c2nc(OC)cc(OC)n2)c1NS(=O)(=O)C(F)F` [compound 1, (R)-2′-(4,6-dimethoxypyrimidin-2-yl)hydroxymethyl-6′-methoxymethyl-1,1-difluoromethanesulfonanilide], the “Herbicidal effect (degree of growth control) index, Monochoria vaginalis” value is reported as 0 (Herbicidal effect of less than 10%) in test [1] (dose 0.04 g ai/10 a), 9 (Herbicidal effect of 90 inclusive to 100% exclusive) in test [1] (dose 0.08 g ai/10 a), 10 (Herbicidal effect of 100% control) in test [1] (dose 0.16 g ai/10 a) and 10 (Herbicidal effect of 100% control) in test [1] (dose 0.32 g ai/10 a). Also, the “Herbicidal effect (degree of growth control) index, Scirpus juncoides” value is given as 7 (Herbicidal effect of 70% inclusive to 80% exclusive) in the test with Scirpus juncoides Roxb. (dose 0.04 g ai/10 a), 9 (Herbicidal effect of 90 inclusive to 100% exclusive) in the test with Scirpus juncoides Roxb. (dose 0.08 g ai/10 a), 10 (Herbicidal effect of 100% control) with Scirpus juncoides Roxb. (dose 0.16 g ai/10 a) and 10 (Herbicidal effect of 100% control) in the test on Scirpus juncoides Roxb. (dose 0.32 g ai/10 a). The “Herbicidal effect (degree of growth control) index, Echinochloa oryzicola” value in test [2] (dose 0.04 g ai/10 a) is listed as 1 (Herbicidal effect of 10% inclusive to 20% exclusive); in test [2] (dose 0.08 g ai/10 a) it was 6 (Herbicidal effect of 60% inclusive to 70% exclusive); in test [2] (dose 0.16 g ai/10 a), 9 (Herbicidal effect of 90 inclusive to 100% exclusive); in test [2] (dose 0.32 g ai/10 a), 9 (Herbicidal effect of 90 inclusive to 100% exclusive).

As for `COCc1cccc([C@H](O)c2nc(OC)cc(OC)n2)c1NS(=O)(=O)C(F)F` [compound 3, (S)-2′-(4,6-dimethoxypyrimidin-2-yl)hydroxyl-methyl-6′-methoxymethyl-1,1-difluoromethanesulfonanilide], the “Herbicidal effect (degree of growth control) index, Monochoria vaginalis” value in test [1] (dose 0.32 g ai/10 a) is on record as 0 (Herbicidal effect of less than 10%). The “Herbicidal effect (degree of growth control) index, Scirpus juncoides” value in the test with Scirpus juncoides Roxb. (dose 0.32 g ai/10 a) was 0 (Herbicidal effect of less than 10%). The “Herbicidal effect (degree of growth control) index, Echinochloa oryzicola” value in test [2] (dose 0.32 g ai/10 a) is on record as 0 (Herbicidal effect of less than 10%).
